Measured values reported in ChEMBL document CHEMBL5696441 (Nat Chem Biol, 2011).

Tests used:
[1] = target: Receptor-interacting serine/threonine-protein kinase 1 (Homo sapiens) (UniProt Q13546); test: Inhibition of RIPK1 (unknown origin) assessed as remaining activity at 1 uM by Kinome scan method relative to control
[2] = Anti-inflammatory activity against human derived medium respond PBMC cells assessed as inhibition in stimulated IL-17A cytokine release incubated for 2 hrs in the presence of LPS/SEB/aCD28 by Luminex based sandwich immunoassay; assay type: functional, cell-based
[3] = target: Casein kinase I isoform gamma-2 (Homo sapiens) (UniProt P78368); test: Inhibition of human CK1gamma2 assessed as residual activity at 1 uM using casein as substrate in presence of 33P-ATP by ProQinase assay relative to control
[4] = target: Tyrosine-protein kinase Blk (Homo sapiens) (UniProt P51451); test: Inhibition of human BLK assessed as residual activity at 1 uM using polyEY as substrate in presence of 33P-ATP by ProQinase assay relative to control
[5] = target: NT-3 growth factor receptor (Homo sapiens) (UniProt Q16288); test: Inhibition of human TRKC assessed as residual activity at 1 uM using polyEy as substrate in presence of 33P-ATP by ProQinase assay relative to control
[6] = Anti-inflammatory activity against human derived high respond PBMC cells assessed as inhibition in stimulated IL-1alpha cytokine release incubated for 2 hrs in the presence of LPS/SEB/aCD28 by Luminex based sandwich immunoassay; assay type: functional, cell-based
[7] = target: Aurora kinase B (Homo sapiens) (UniProt Q96GD4); test: Inhibition of human AuroraB assessed as residual activity at 1 uM using bio-4xCHKT as substrate in presence of 33P-ATP by ProQinase assay relative to control
[8] = target: Ephrin type-B receptor 1 (Homo sapiens) (UniProt P54762); test: Inhibition of human EPHB1 assessed as residual activity at 1 uM using polyEY as substrate in presence of 33P-ATP by ProQinase assay relative to control
[9] = target: Mitogen-activated protein kinase kinase kinase 6 (Homo sapiens) (UniProt O95382); test: Inhibition of ASK2 (unknown origin) assessed as remaining activity at 1 uM by Kinome scan method relative to control
[10] = target: Mitogen-activated protein kinase 3 (Homo sapiens) (UniProt P27361); test: Inhibition of ERK1 (unknown origin) assessed as remaining activity at 1 uM by Kinome scan method relative to control
[11] = target: Activin receptor type-1 (Homo sapiens) (UniProt Q04771); test: Inhibition of ACVR1 (unknown origin) assessed as remaining activity at 1 uM by Kinome scan method relative to control
[12] = target: Hepatocyte growth factor receptor (Homo sapiens) (UniProt P08581); test: Inhibition of MET (unknown origin) assessed as remaining activity at 1 uM by Kinome scan method relative to control
[13] = target: Dual specificity tyrosine-phosphorylation-regulated kinase 1A (Homo sapiens) (UniProt Q13627); test: Inhibition of human DYRK1A assessed as residual activity at 1 uM using RBER-CHKtide as substrate in presence of 33P-ATP by ProQinase assay relative to control
[14] = target: MAP kinase-interacting serine/threonine-protein kinase 1 (Homo sapiens) (UniProt Q9BUB5); test: Inhibition of human MKNK1 assessed as residual activity at 1 uM using RB-S6P as substrate in presence of 33P-ATP by ProQinase assay relative to control
Sequence of MAP kinase-interacting serine/threonine-protein kinase 1 (Homo sapiens) (Q9BUB5 whole entry, looked up): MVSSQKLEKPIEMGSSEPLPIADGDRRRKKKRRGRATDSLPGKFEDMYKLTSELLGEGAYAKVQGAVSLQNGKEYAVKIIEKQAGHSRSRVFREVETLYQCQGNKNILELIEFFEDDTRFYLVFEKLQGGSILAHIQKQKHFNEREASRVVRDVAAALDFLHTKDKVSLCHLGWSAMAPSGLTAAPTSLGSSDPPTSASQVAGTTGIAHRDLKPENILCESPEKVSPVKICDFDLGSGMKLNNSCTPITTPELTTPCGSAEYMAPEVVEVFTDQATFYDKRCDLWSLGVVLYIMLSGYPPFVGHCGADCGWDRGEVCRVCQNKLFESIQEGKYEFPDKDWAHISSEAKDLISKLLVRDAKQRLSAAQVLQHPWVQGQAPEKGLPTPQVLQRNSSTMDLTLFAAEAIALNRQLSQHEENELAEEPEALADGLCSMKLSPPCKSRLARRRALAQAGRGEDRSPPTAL

Sequence of Activin receptor type-1 (Homo sapiens) (Q04771 whole entry): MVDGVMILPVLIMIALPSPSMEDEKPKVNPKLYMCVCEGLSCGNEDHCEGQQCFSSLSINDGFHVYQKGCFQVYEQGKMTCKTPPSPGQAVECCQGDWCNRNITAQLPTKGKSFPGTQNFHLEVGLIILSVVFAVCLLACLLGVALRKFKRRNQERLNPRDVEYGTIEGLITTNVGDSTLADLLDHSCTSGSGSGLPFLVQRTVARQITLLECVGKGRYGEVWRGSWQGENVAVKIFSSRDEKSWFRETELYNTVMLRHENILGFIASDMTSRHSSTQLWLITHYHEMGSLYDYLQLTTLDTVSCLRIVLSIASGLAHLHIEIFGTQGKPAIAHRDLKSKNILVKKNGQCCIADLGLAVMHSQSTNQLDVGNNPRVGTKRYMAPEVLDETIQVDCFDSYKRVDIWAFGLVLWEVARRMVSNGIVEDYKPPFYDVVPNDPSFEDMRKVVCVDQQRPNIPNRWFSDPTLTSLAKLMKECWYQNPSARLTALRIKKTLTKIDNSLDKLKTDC
Sequence of Ephrin type-B receptor 1 (Homo sapiens) (P54762 whole entry): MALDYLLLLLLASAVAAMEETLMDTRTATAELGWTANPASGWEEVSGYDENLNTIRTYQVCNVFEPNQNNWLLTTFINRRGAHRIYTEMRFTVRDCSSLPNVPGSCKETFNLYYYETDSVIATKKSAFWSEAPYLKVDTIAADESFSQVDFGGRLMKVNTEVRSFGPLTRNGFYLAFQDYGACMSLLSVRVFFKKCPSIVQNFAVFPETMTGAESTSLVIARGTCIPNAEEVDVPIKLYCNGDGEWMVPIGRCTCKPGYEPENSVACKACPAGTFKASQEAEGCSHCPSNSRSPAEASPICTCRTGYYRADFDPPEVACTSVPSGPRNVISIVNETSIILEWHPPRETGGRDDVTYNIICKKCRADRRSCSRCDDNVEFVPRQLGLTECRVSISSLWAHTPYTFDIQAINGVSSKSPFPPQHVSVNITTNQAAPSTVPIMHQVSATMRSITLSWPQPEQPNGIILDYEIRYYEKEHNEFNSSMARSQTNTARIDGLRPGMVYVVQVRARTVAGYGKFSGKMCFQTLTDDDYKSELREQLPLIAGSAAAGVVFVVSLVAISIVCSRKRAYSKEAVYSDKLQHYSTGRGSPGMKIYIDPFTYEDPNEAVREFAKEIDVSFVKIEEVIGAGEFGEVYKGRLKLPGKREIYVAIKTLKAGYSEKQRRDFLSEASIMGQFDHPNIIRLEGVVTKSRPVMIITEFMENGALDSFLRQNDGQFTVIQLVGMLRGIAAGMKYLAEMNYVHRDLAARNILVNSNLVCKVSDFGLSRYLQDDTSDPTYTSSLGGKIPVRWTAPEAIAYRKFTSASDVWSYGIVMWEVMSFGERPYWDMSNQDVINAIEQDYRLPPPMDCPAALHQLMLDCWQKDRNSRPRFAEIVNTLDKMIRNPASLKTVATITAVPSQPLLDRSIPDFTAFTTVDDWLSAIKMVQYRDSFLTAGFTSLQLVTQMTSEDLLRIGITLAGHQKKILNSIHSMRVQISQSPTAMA
Sequence of Receptor-interacting serine/threonine-protein kinase 1 (Homo sapiens) (Q13546 whole entry): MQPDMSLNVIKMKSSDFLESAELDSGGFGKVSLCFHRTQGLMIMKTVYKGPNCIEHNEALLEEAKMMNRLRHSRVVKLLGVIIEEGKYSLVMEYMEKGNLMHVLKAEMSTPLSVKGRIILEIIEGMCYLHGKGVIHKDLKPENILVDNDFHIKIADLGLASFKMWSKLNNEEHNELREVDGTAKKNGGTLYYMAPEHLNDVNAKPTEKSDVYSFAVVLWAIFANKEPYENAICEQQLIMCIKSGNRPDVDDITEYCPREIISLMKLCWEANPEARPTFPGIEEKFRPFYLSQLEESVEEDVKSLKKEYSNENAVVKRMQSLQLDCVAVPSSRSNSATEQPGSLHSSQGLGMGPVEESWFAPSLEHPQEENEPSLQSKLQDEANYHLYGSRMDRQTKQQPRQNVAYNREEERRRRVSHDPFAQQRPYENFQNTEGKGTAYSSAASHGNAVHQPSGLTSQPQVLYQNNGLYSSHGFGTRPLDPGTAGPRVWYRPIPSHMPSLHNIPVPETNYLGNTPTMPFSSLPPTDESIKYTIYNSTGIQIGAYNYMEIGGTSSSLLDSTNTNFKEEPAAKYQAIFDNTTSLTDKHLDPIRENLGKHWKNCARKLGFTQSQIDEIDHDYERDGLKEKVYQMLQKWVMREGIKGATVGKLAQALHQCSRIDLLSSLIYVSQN
Sequence of Mitogen-activated protein kinase 3 (Homo sapiens) (P27361 whole entry): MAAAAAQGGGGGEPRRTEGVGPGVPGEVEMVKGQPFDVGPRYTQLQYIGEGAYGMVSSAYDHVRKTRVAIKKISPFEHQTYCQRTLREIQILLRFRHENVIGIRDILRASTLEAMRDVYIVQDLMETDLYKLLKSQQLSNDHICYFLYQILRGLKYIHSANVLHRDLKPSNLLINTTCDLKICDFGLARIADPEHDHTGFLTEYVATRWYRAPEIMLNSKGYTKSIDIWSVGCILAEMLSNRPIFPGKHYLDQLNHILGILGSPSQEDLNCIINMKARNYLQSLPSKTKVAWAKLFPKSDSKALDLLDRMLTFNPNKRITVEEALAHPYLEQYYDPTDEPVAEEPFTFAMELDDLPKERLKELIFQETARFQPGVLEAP
Sequence of Aurora kinase B (Homo sapiens) (Q96GD4 whole entry): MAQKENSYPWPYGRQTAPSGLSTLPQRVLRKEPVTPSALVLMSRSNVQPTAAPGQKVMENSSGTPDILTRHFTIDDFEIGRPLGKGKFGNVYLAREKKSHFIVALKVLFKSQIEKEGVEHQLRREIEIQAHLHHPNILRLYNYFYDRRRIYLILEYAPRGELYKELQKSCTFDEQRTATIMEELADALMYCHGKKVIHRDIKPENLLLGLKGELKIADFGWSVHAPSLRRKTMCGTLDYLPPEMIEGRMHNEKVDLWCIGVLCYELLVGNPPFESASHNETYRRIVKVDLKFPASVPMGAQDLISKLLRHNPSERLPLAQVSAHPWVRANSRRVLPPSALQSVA
Sequence of Mitogen-activated protein kinase kinase kinase 6 (Homo sapiens) (O95382 whole entry): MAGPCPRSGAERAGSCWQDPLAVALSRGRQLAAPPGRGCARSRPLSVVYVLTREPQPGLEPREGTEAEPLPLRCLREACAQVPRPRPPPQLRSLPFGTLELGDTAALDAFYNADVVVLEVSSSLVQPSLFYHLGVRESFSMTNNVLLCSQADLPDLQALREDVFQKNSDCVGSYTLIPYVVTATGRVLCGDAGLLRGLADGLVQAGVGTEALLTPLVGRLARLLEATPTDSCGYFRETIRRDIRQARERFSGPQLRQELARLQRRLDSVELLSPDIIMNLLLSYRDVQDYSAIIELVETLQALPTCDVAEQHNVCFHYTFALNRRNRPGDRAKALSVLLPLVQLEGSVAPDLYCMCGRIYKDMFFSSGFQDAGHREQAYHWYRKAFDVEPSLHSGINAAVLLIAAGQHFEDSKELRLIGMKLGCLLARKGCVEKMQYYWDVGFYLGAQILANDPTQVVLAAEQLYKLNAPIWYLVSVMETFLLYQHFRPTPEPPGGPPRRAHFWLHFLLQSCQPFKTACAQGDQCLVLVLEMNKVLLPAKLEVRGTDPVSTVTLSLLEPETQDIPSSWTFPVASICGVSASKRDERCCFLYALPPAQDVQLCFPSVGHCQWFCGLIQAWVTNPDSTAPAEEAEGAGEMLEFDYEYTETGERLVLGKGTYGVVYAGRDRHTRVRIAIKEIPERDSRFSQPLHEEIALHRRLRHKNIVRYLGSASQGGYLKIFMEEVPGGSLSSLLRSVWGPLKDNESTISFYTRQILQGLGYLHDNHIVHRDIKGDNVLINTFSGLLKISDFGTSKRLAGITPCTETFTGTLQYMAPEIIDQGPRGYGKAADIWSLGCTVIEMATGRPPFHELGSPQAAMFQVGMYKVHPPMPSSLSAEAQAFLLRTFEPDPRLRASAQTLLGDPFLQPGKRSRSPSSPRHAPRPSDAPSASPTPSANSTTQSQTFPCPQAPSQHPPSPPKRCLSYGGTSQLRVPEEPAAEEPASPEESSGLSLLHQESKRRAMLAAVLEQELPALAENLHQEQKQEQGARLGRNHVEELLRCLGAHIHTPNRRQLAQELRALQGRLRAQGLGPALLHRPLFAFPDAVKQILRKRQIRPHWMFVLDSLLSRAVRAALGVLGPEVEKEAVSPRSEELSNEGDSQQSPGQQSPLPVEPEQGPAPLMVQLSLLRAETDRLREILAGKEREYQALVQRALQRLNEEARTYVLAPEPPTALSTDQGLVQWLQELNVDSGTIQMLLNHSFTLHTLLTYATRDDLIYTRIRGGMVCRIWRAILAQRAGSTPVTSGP

Molecule `O=C1c2ccc(Nc3ccc(F)cc3F)cc2CCc2ccc(OC[C@H](O)CO)cc21` [Skepinone-L] has an Activity [1] of 100%, an IC50 [2] of 7.85 µM and an Activity [3] of 98%. The Activity [4] was 107%, the Activity [5] was 120% and the IC50 [6] was 0.12 µM. It also gave an Activity [7] of 96%, an Activity [8] of 116% and an Activity [9] of 100%. For the same molecule, the Activity [10] was 100%, the Activity [11] was 99% and the Activity [12] was 100%. The Activity [13] was 96% and the Activity [14] was 69%.
